Here are results for 73 compounds from PubChem BioAssay AID179 (DTP/NCI, 2004).

The source made the active and inactive calls.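 The calls were made as follows: active = compounds giving half or more protection of infected cells from virus-caused growth loss, again on retest; inactive = the rest.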

The EC50 is the concentration needed to bring the measured effect to its halfway point. Usually IC50 stands for the concentration that gives 50% inhibition.

For the experiment, the system named is CEM cells HIV-1 protection, formazan growth assay. Put plainly: NCI AIDS Antiviral Assay. Conditions: for IC50: measured here: growth of uninfected CEM cells. Summed up:
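Five concentrations of each compound were applied to infected and uninfected human CEM cells. Protection from HIV-1 was judged from growth measured with a soluble formazan assay.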

Consider `COc1ccc(-c2c[se]c(=S)s2)cc1`, for which the EC50 was above 18.2 µM and the half-inhibitory concentration (IC50) is above 18.2 µM.

For `COC(=O)c1cc(C(=CCl)c2cc(C(=O)OC)c(OC)c(Br)c2C)c(C)c(Br)c1OC`, the EC50 was above 200 µM and the IC50 worked out at 6.46 µM.

For the compound `CC1=NN(C(=O)c2cc(Cl)cc([N+](=O)[O-])c2)C(=O)C1N=Nc1ccccc1C(=O)O` (stereo unspecified), the result was inactive.

Turning to `CCOC(=O)C(C)(C)C(OP(OCC)OCC)=C(C)C`, the EC50 was above 589 µM and the half-inhibitory concentration (IC50) was above 589 µM.

In the case of `O=C(O)C(CS)NCc1c2ccccc2[n+]([O-])c2ccccc12` (stereo unspecified), the result was inactive.

Turning to `CC(C)[Si]1(C(C)C)OCC2OC(n3cnc4c(N)ncnc43)C(N)C2O[Si](C(C)C)(C(C)C)O1` (stereo unspecified), the EC50 is above 200 µM and the IC50 worked out at 8.51 µM.

On to `O=C(Oc1ccccc1)c1cccc(C(=O)Oc2ccccc2)c1`, for which the EC50 was above 16.2 µM and the 50% inhibitory concentration (IC50) is above 16.2 µM.

As to `CCOC(=O)c1nc2ccccc2nc1Oc1ccc(OC)cc1`, the EC50 was above 200 µM and the 50% inhibitory concentration (IC50) is above 200 µM.

On to `CC(C)/C(Cl)=N\OC(=O)Nc1ccc(F)cc1F`, for which the EC50 was above 200 µM and the IC50 is 7.24 µM.

Regarding `CCOC(=O)C(Cc1c(C=O)[nH]c2ccccc12)(NC(=O)c1ccccc1)C(=O)OCC`, the result was inactive.

With `O=P(O)(O)C(NCC(O)CN1CCOCC1)P(=O)(O)O` (stereo unspecified), the EC50 is above 200 µM and the IC50 was above 200 µM.

On to `CCOC(=O)C1=NN(c2ccc(C)cc2)C2(c3ccccc3)C=C(c3ccccc3)N(C)CCN12` (stereo unspecified), for which the EC50 is above 200 µM and the IC50 came out at 145 µM.

Take `COc1c(Br)cc2ccccc2c1-c1c(OC)c(Br)cc2ccccc12`: the EC50 is 17.4 µM and the IC50 was above 100 µM.

For `CCCn1ccc(=O)c(O)c1C`, the EC50 was above 200 µM and the half-inhibitory concentration (IC50) was 35.5 µM.

Take `CCN(CC)CCSSCCN(CC)CC`: the EC50 was above 200 µM and the 50% inhibitory concentration (IC50) is 38.9 µM.

Take `CN(C)CC1CCC/C(=C\c2ccc(OC(=O)/C=C/c3ccc(Cl)cc3)cc2)C1=O` (stereo unspecified): the EC50 is above 50.1 µM and the IC50 was found to be 2.19 µM.

`Cc1c2ccccc2c(C)c2c3c(ccc12)C(=O)C=CC3=O`: the outcome was inactive.

For the compound `COC(=O)C1C2CC3C(OC(=O)C31)C2OC(=O)[C@](OC)(c1ccccc1)C(F)(F)F` (stereo partly specified), the EC50 was above 83.2 µM and the IC50 is above 83.2 µM.

In the case of `CN1/C(=C\N=O)C(C)(C)N(O)C1(C)C`, the EC50 was above 200 µM and the IC50 is above 200 µM.

As to `O=P1(c2ccccc2)Nc2cc(Cl)c(Cl)cc2N1`, the EC50 is above 200 µM and the IC50 stood at 64.6 µM.

For the compound `COC(=O)C1(C2CCOC2=O)NCCc2c1[nH]c1ccccc21` (stereo unspecified), the EC50 is above 245 µM and the IC50 came to 141 µM.

Take `CC1=C(C(=O)Nc2ccc(Cl)c(C(=O)OC(C)C)c2)SCCO1`: the EC50 is 0.398 µM and the IC50 turned out to be 74.1 µM.

Turning to `COC1OC(CO)C2OC12` (stereo unspecified), the EC50 is above 200 µM and the IC50 was above 200 µM.

As to `CCOC(=O)c1c(CN2CCNCC2)nc2ccc(Cl)cc2c1-c1ccccc1`, the EC50 was above 63.1 µM and the IC50 came to 33.9 µM.

`C(#CP(c1ccccc1)c1ccccc1)P(C#CP(c1ccccc1)c1ccccc1)c1ccccc1`: the result was inactive.

With `O=S(c1ccc(Cl)cc1)S(=O)c1ccc(Cl)cc1` (stereo unspecified), the EC50 was above 22.4 µM and the half-maximal inhibitory concentration (IC50) stood at 18.2 µM.

On to `CC1CC[C@H]2[C@@H]1[C@H]1[C@@H](CC[C@@]23CCc2ccccc2O3)C1(C)C` (stereo partly specified), for which the EC50 was above 11.5 µM and the IC50 is above 11.5 µM.

In the case of `CCOC(=O)C(O)(NC(=O)c1ccccc1F)C(F)(F)F` (stereo unspecified), the result was inactive.

On to `C[C@@]1(Br)C[C@@](C)(Cl)[C@@H](Br)CC1/C=C/Cl` (stereo partly specified), for which the EC50 was above 200 µM and the half-maximal inhibitory concentration (IC50) came to 77.6 µM.

Regarding `[N-]=[N+]=NCN1C(=O)C2C3C=CC(C2C1=O)C1C2C(=O)N(CN=[N+]=[N-])C(=O)C2C31` (stereo unspecified), the outcome was inactive.

Take `CCOc1nc2sc3c(c2c(=O)n1CCSSCCn1c(OCC)nc2sc4c(c2c1=O)CCCC4)CCCC3`: the EC50 was above 100 µM and the IC50 is above 100 µM.

As for `Cc1cc(C)nc(NS(=O)(=O)c2ccc(NC(=O)c3ccc(Cl)c4c(Nc5ccc(S(=O)(=O)Nc6cc(C)on6)cc5)c5ccccc5nc34)cc2)n1`, the EC50 was above 46.8 µM and the IC50 is above 46.8 µM.

Turning to `NC(=O)C1CC2(C1)CC(C(N)=O)C2` (stereo unspecified), the EC50 is above 245 µM and the IC50 is above 245 µM.

`Nc1ccccc1/C=C/c1ccnc2ccccc12`: the EC50 was 0.0631 µM and the IC50 worked out at 40.7 µM.

Consider `CC(C)(c1ccc(OP2(=O)OCC3(CC=CCC3)CO2)cc1)c1ccc(OP2(=O)OCC3(CC=CCC3)CO2)cc1` (stereo unspecified), for which the EC50 is above 200 µM and the half-maximal inhibitory concentration (IC50) was found to be 22.9 µM.

In the case of `OC(c1ccc2c(c1)OCO2)c1ccc2c(c1)OCO2`, the EC50 was above 200 µM and the 50% inhibitory concentration (IC50) was 178 µM.

Consider `CSc1nc(N)nc(N)n1`, for which the EC50 was above 200 µM and the IC50 was above 200 µM.

For the compound `NNC(=O)C1C2c3ccccc3C(c3ccccc32)C1C(=O)NN` (stereo unspecified), the EC50 is above 200 µM and the IC50 is above 200 µM.

For `CC(C)(C)c1cc(-c2ccc(-c3cc(C(C)(C)C)c(O)c(C(C)(C)C)c3)cc2)cc(C(C)(C)C)c1O`, the EC50 was above 100 µM and the IC50 is above 100 µM.

On to `C1CN(CCSSCCN2CCOCC2)CCO1`, for which the EC50 is above 200 µM and the IC50 stood at 166 µM.

In the case of `O=C(Nc1ccc(C2=NCCN2)cc1)c1ccc(F)c(C(=O)Nc2ccc(C3=NCCN3)cc2)c1`, the EC50 was above 200 µM and the IC50 is above 200 µM.

Consider `CN1C(=O)C(CCO)(C(C)(C)C)c2ccccc21` (stereo unspecified), for which the EC50 was above 200 µM and the half-maximal inhibitory concentration (IC50) was above 200 µM.

Take `CCCCC=C(c1cc(Cl)c(OC)c(C(=O)OC)c1)c1cc(Cl)c(OC)c(C(=O)OC)c1`: the EC50 was above 5.62 µM and the IC50 is above 5.62 µM.

With `Cc1nc(SCC(=O)Nc2ccccc2)c2sc(=S)n(-c3ccccc3)c2n1`, the concentration giving a half-maximal response (EC50) is above 501 µM and the IC50 was above 501 µM.

Take `CC(C)c1ccc(/C=C(\NC(=O)c2ccccc2)c2nc3ccccc3[nH]2)cc1`: the EC50 was above 49 µM and the IC50 is above 49 µM.

On to `O=c1c2ccc3cccc4c(=O)cc(c5ccccc15)-c2c34`, for which the result was inactive.

Regarding `Cc1ccc(N=Nc2c(C)c(C#N)c(=S)n(C3OC(CO)C(O)C(O)C3O)c2-c2ccccc2)cc1` (stereo unspecified), the EC50 is above 200 µM and the IC50 was found to be 18.6 µM.

As to `Cc1ccc(NC(=O)OCC(COc2ccc(Cl)cc2)OC(=O)Nc2ccc(C)cc2)cc1` (stereo unspecified), the EC50 was above 15.5 µM and the half-maximal inhibitory concentration (IC50) was above 15.5 µM.

Consider `O/N=C/C1C(OCc2ccccc2)C(OCc2ccccc2)C(OCc2ccccc2)CN1Cc1ccccc1` (stereo unspecified), for which the outcome was inactive.

Regarding `CCCCCCCCCCCC(O)=C1C(=O)CC(O)CC1=O` (stereo unspecified), the EC50 is above 17 µM and the IC50 was above 17 µM.

For `COCC(O)COn1c(=O)c(C#N)[n+]([O-])c2ccccc21` (stereo unspecified), the EC50 was above 200 µM and the half-maximal inhibitory concentration (IC50) was 30.2 µM.

As for `O=C(O)c1ccccc1SCc1cccc2c(=O)c3ccc(Cl)cc3oc12`, the EC50 is 10.2 µM and the half-maximal inhibitory concentration (IC50) was found to be 30.2 µM.

On to `Cc1cc2c(c(=O)[nH]1)C(=O)NC2=O`, for which the EC50 was above 813 µM and the IC50 came out at 468 µM.

For the compound `COc1cccc(C(C#N)NC23CC4CC(CC(C4)C2)C3)c1` (stereo unspecified), the result was inactive.

`CSc1nc(C(N)=O)c(N)c(=O)[nH]1`: the EC50 was above 468 µM and the concentration for half-maximal inhibition (IC50) came to 126 µM.

Turning to `CCOC(=O)CNC(=O)C(C)NC(=O)C(NC(=O)CC(c1ncc[nH]1)c1ncc[nH]1)C(C)CC` (stereo unspecified), the EC50 is above 100 µM and the 50% inhibitory concentration (IC50) is above 100 µM.

As to `O=C(O)C1SCCCS1`, the EC50 is above 1510 µM and the IC50 is above 1510 µM.

On to `O=C(O)c1onc2ccccc12`, for which the EC50 was above 1510 µM and the IC50 stood at 1000 µM.

In the case of `Cc1ccc(C=Nc2ccc(SSc3ccc(N=Cc4ccc(C)cc4)cc3)cc2)cc1`, the EC50 was above 200 µM and the IC50 stood at 26.3 µM.

For the compound `COc1ccc(NC(=O)CC(=O)N2N=C(N(CCC#N)c3cccc(C)c3)CC2c2ccccc2)cc1` (stereo unspecified), the EC50 was above 100 µM and the IC50 was above 100 µM.

For `O=C(NCC(C(=O)OCc1ccccc1)C(=O)OCc1ccccc1)OCc1ccccc1`, the EC50 is above 200 µM and the IC50 was 63.1 µM.

On to `Clc1cc(C(c2cc(Cl)sc2Cl)c2cc(Cl)sc2Cl)c(Cl)s1`, for which the EC50 is above 50.1 µM and the half-maximal inhibitory concentration (IC50) was above 50.1 µM.

Take `COC(=O)C1=C(C(=O)OC)C2(c3ccccc3)c3ccccc3C(=O)C1N2C1CCCCC1` (stereo unspecified): the EC50 is above 200 µM and the IC50 was determined as 16.6 µM.

`CC12CC(C/C1=N/O)C(C)(C)C2` (stereo unspecified): the EC50 is above 1480 µM and the IC50 was above 1480 µM.

`COc1cc(/C=C2\C(=O)N(c3ccccc3Cl)C(c3ccccc3)S2(=O)=O)cc(OC)c1OC` (stereo unspecified): the EC50 is above 200 µM and the IC50 turned out to be 85.1 µM.

In the case of `N#Cc1c(N2CCCC2)ncn(-c2ccccc2)c1=S`, the EC50 was above 200 µM and the 50% inhibitory concentration (IC50) was above 200 µM.

Regarding `Cn1cnc(/C=C/C#N)c1`, the EC50 was above 200 µM and the IC50 was above 200 µM.

On to `C=C1C2CCC3(C4C[C@H]5C6(CCC[C@@]5(C)[C@H]5OCCN5[C@H]6O4)[C@@H]3C2)C1OC(C)=O` (stereo partly specified), for which the EC50 was above 12.9 µM and the 50% inhibitory concentration (IC50) was above 12.9 µM.

With `O=C(Nc1cccc([N+](=O)[O-])c1)c1n[nH]n(-c2cccc([N+](=O)[O-])c2)c1=O`, the EC50 was above 200 µM and the half-maximal inhibitory concentration (IC50) is above 200 µM.

In the case of `CC(C)/C(Cl)=N\OC(=O)Nc1ccc(F)c([N+](=O)[O-])c1`, the EC50 was above 200 µM and the IC50 came out at 3.02 µM.

Regarding `COCN1C(=O)[C@@H]2CCCN2C(=O)c2cc(Cl)ccc21`, the EC50 was above 200 µM and the IC50 was above 200 µM.

As for `CC(=O)NC(=O)CC(=O)c1ccccc1`, the EC50 is above 631 µM and the IC50 is above 631 µM.

`Cc1ccc2cc(NC(=O)CN)c3ccc(C)nc3c2n1.Cc1ccc2cc(NC(=O)CN)c3ccc(C)nc3c2n1.O=C1OC(C(O)C[O-])C(O)=C1O.[Cu+]`: the EC50 is above 12.6 µM and the half-inhibitory concentration (IC50) worked out at 0.562 µM.
